Measurements: US8828680B2, “Combined rapid susceptibility assay and microorganism identification system” (Siemens Healthcare Diagnostics Inc., priority 1999, dated 2014)
Converted amounts (≈) assume the structure as drawn. Each block holds one molecule with its values, some of them ahead of it.

Key:
Type in all cases: cell-based
C. freundii 87 [1] = assay: New AST method using bichromatic absorbance between 405 and 620 nm
Text: (§1) The goals of the new AST method are to achieve higher precision, greater accuracy and increased reliability by using (1) quantitative spectral information derived from bichromatic measurements, (2) a dynamic breakpoint for individual drug wells based on their initial condition, and (3) a susceptibility index for determining susceptibility. The new AST method includes the following processes.
(§2) Bichromatic absorbance is the difference between the primary wavelength with significant turbidity and the secondary wavelength with little turbidity. For Gram positive organisms, the wavelengths are 505 and 620 for all drugs.
(§3) For Gram negative organisms, the wavelengths are 405 and 620 nm for most drugs except Nitrofurantoin and tetracycline. The wavelengths for Nitrofurantoin and tetracycline are 505 and 620 nm.
(§4) The susceptibility index (SI) is the ratio of the initial and final absorbance after correction for system drift. The susceptibility indexes are calculated for each drug well and the growth well (positive control well). The following formula (equation 1) is used to calculate the susceptibility index:
(§5) where • Di=Initial bichromatic absorbance from drug well • Df=Final bichromatic absorbance from drug well • Ci=Initial bichromatic absorbance from control ([…]) well • Cf=Final bichromatic absorbance from control (negative control) well
(§6) Compare susceptibility indices from drug wells to determine growth/no growth. A value of 1.05 is presently preferred for use as a cutoff to determine growth. The value may be adjusted as assay procedures undergo further refinement but is nonetheless expected to retain a value approaching 1.
(§7) In the current conventional MIC methods used in many art-recognized systems, the MIC is the first no growth well after the last growth well in the dilution series. Difficulties in interpretation occur, however, when there are “no growth” wells interspersed amongst “growth” wells in the same series. Conventional methods treat these no growth wells as “skipped” wells and the MIC is adjusted according to the number of skipped wells. In the methods and systems of the invention, however, an algorithm is applied which more accurately identifies which wells are true skipped wells. In addition, the algorithm is applied to determine which wells are contaminated. Use of the new system increases the accuracy of the read substantially.

C. freundii 87 [2] = assay: Manual read MIC; details: Citrobacter freundii; C. freundii 87, manual read
Text: (§8) (see, e.g., Dried Gram Negative Procedural Manual, supra, at page 1 (and references cited therein).) Appropriate specimens should be collected, transported, and placed on primary isolation media according to procedures recommended in the Manual of Clinical Microbiology (Murray, et al. (eds.), Manual of Clinical Microbiology, 6th ed., American Society for Microbiology, Washington, D.C. (1995)). Subsequently, a standard, automated assay may thus be conducted essentially as follows.
(§9) The panels may be read manually (e.g. using a MICROSCAN® Microdilution Viewer, Dade MicroScan Inc., West Sacramento, Calif.) and results recorded on an appropriate worksheet. The panels may also—or alternatively—be read instrumentally, e.g., using a TOUCHSCAN®-SR, AUTOSCAN®-4, or WALKAWAY® system (Dade MicroScan Inc., West Sacramento, Calif.). Refer to the appropriate operator's manual for reading panels using instrumentation.

C. freundii 87 [3] = assay: Conventional AST method using absorbance at 620 nm; details: Citrobacter freundii, 3 hrs and 16 hrs, breakpoint 1800
Experimental: In the conventional method, the analyte is turbidity and its measurement at 620 nm wavelength is used to quantify growth. The current conventional AST method determines growth by comparing the calculated processed value, which is the 620 nm absorbance difference between two (2) hours and forty-five minutes and 16 or 18 hours against a breakpoint. This breakpoint was determined by testing 100-200 isolates and reading results manually or via instruments and correlating the reads of those isolates to their processed values. […] Subsequently, a standard, automated assay may thus be conducted essentially as follows.

C. freundii 104 [4] = assay: Conventional AST method using absorbance at 620 nm; details: Citrobacter freundii, 4 hrs and 16 hrs, breakpoint 400
Experimental: The monochromatic method of spectral analysis involves selecting a single wavelength that contains a unique spectral feature for the analyte of interest. In the conventional method, the analyte is turbidity and its measurement at 620 nm wavelength is used to quantify growth. The current conventional AST method determines growth by comparing the calculated processed value, which is the 620 nm absorbance difference between two (2) hours and forty-five minutes and 16 or 18 hours against a breakpoint. This breakpoint was determined by testing 100-200 isolates and reading results manually or via instruments and correlating the reads of those isolates to their processed values. This approach has limited capability because the processed value is not corrected for system-dependent variations and the breakpoint is not adaptable to system change. […] (see, e.g., Dried Gram Negative Procedural Manual, supra, at page 1 (and references cited therein).) Appropriate specimens should be collected, transported, and placed on primary isolation media according to procedures recommended in the Manual of Clinical Microbiology (Murray, et al. (eds.), Manual of Clinical Microbiology, 6th ed., American Society for Microbiology, Washington, D.C. (1995)). Subsequently, a standard, automated assay may thus be conducted essentially as follows.

C. freundii 104 [5] = assay: New AST method using bichromatic absorbance between 405 and 620 nm; details: for Susceptibility Index (D6 − C6)/(D3 − C3): 6 hrs vs 3 hrs
Text: as §1, §2, §3, §4, §5, §6, §7

C. freundii 104 [6] = assay: Manual read MIC; details: Citrobacter freundii; C. freundii 104, manual read
Text: as §8, §9

[7] = Citrobacter freundii, bichromatic 405-620 nm, 3 hrs and 6 hrs

- MIC (C. freundii 87 [2]): > 256 µg/mL
SMILES: Cc1cc(NS(=O)(=O)c2ccc(N)cc2)no1 [Sulfamethoxazole]
- MIC (C. freundii 87 [1]; [7]): > 256 µg/mL
- Susceptibility Index (D6 − C6)/(D3 − C3) (C. freundii 87 [1]; drug level 256 μg/mL, 6 hrs vs 3 hrs): 1639/1064 = 1.5
- MIC (C. freundii 87 [3]): < 256 µg/mL

- MIC (C. freundii 104 [6]): 2 µg/mL (≈ 4.28 µM)
SMILES: NC[C@H]1O[C@H](O[C@H]2[C@H](O)[C@@H](O[C@H]3O[C@H](CO)[C@@H](O)[C@H](N)[C@H]3O)[C@H](N)C[C@@H]2N)[C@H](N)C[C@@H]1O [Tobramycin]
- MIC (C. freundii 104 [4]): 2 µg/mL (≈ 4.28 µM)
- MIC (C. freundii 104 [5]; [7]): 2 µg/mL (≈ 4.28 µM)
- Susceptibility Index (D6 − C6)/(D3 − C3) (C. freundii 104 [5]; drug level 0.5 μg/mL): 3696/1205 = 3.0
- Susceptibility Index (D6 − C6)/(D3 − C3) (C. freundii 104 [5]; drug level 1 μg/mL): 1898/1201 = 1.6
- Susceptibility Index (D6 − C6)/(D3 − C3) (C. freundii 104 [5]; drug level 2 μg/mL): 1145/1180 = 1.0
- Susceptibility Index (D6 − C6)/(D3 − C3) (C. freundii 104 [5]; drug level 4 μg/mL): 1096/1136 = 1.0
- Susceptibility Index (D6 − C6)/(D3 − C3) (C. freundii 104 [5]; drug level 8 μg/mL): 1196/1237 = 1.0
